According to US20240360415A1, “MUSCLE CELLS DIFFERENTIATED FROM PLURIPOTENT CELLS, METHODS OF PRODUCING SAME AND USE THEREOF” (ALEPH FARMS LTD., priority 2021, published 2024):

System: Bovine pluripotent stem cells (PSCs)
Experiment: Immunofluorescence staining of Myosin heavy chain (MF-20 antibody) after total of 11 days of differentiation
Format: cell-based
Conditions: 3D suspension 4 days with factors (CHIR 10 μM; Activin A 20 ng/ml or TGFβ 2 ng/ml), then 7 days 2D serum-free without factors; FIG. 3A-3C
Experimental: Bovine skeletal muscle cells in 2D culture were subjected to immunofluorescence analysis as following: The cells were fixed using 4% Paraformaldehyde (PFA; […] Nuclei were stained using […] of DAPI (Sigma). The imaging was performed using EVOS FL Auto 2 Fluorescent Microscopy (ThermoFisher). Bovine pluripotent stem cells (PSCs) were grown in 2D and/or 3D culture. […] The suspension culture conditions (“3D culture conditions”) include ultra-low adherent (ULA) 6-well plate (Corning) placed at 38.5° C. under 5% CO2 and humidity of >75% under rotation. Medium was refreshed using the skeletal Muscle Precursor medium (without RI) and the formed aggregates were allowed to differentiate for a total of 4 days. The aggregates comprising skeletal muscle committed cells were collected and seeded on in a tissue culture Vitronectin (0.005 mg/ml) pre-coated plate (“2D conditions”) in serum free growth medium. […] Medium was refreshed using the skeletal Muscle Precursor medium (without RI) and the formed aggregates were allowed to differentiate for a total of 4 days. After 4 days, the cells comprising skeletal muscle committed cells were collected and seeded in a 2D culture conditions as described for the aggregate obtained from 3D culture conditions described above.

With Cc1cnc(-c2cnc(NCCNc3ccc(C#N)cn3)nc2-c2ccc(Cl)cc2Cl)[nH]1 [CHIR-99021, 6-[[2-[[4-(2,4-Dichlorophenyl)-5-(5-methyl-1H-imidazol-2-yl)-2-pyrimidinyl]amino]ethyl]amino]-3-pyridinecarbonitrile] as the compound, how does the “Myosin heavy chain positive (skeletal muscle) cells by immunofluorescence” value read?
The value was “no Myosin positive cells”.
